Source: paper PMC6509125, “The selective disruption of presynaptic JNK2/STX1a interaction reduces NMDA receptor-dependent glutamate release” (Scientific Reports, 2019)

Assays:
Format in all cases: cell-based, mouse
[1] = test system: presynaptic NMDA receptors; assay: mEPSC whole cell patch clamp recordings in entorhinal cortex slices; conditions: TTX 1 µM, PTX 100 µM, MK-801 10 µM in pipette; n = 8
p46-JNK = p46-JNK phosphorylation, western blot of cortical synaptosomes; conditions: NMDA 100 µM + glycine 1 µM 10 min or KCl 8 mM 90 s (Fig. 1A); n = 6
p54-JNK = p54-JNK phosphorylation, western blot of cortical synaptosomes; conditions: mean ± s.e.m.; for p54-JNK phosphorylation vs. control, stimulus alone: NMDA 100 µM + glycine 1 µM 10 min or KCl 8 mM 90 s (Fig. 1A), n = 6
STX1a (Ser14 p-STX1a) = assay: STX1a Ser14 phosphorylation, western blot of cortical synaptosomes; conditions: mean ± s.e.m.; for Ser14 p-STX1a levels vs. control = 1, stimulus alone: NMDA 100 µM + glycine 1 µM 10 min or KCl 8 mM 90 s (Fig. 1B), n = 6
SNARE complex = SNARE complex formation assay in cortical synaptosomes; conditions: NMDA 100 µM + glycine 1 µM 10 min alone; mean ± s.e.m., n = 4
[2] = test system: NMDA-evoked exocytosis, cortical synaptosomes; assay: Synaptic vesicle release, FM1-43 destaining in cortical synaptosomes; conditions: NMDA 100 µM + glycine 1 µM, 0 µM JGRi1; mean ± s.e.m., n = 5

Structure (SMILES)	mEPSC amplitude, vehicle vs. D-AP5 [1]	mEPSC inter-event interval (iei), vehicle vs. D-AP5 [1]	p46-JNK phosphorylation, stimulus alone (p46-JNK)	p54-JNK phosphorylation vs. control, stimulus alone (p54-JNK)	Ser14 p-STX1a levels vs. control = 1, stimulus alone (STX1a (Ser14 p-STX1a))	SNARE complex formation vs. control = 1, stimulus alone (SNARE complex)	NMDA-induced release of fluorescent dye FM1-43, stimulus alone [2]	p54-JNK phosphorylation vs. control = 1, stimulus alone (p54-JNK; NMDA 100 µM + glycine 1 µM 10 min alone (Fig. 4A), n = 7)	STX1a phosphorylation vs. control = 1, stimulus alone (STX1a (Ser14 p-STX1a); NMDA 100 µM + glycine 1 µM 10 min alone (Fig. 4B), n = 7)
NC(CCCP(=O)(O)O)C(=O)O [D-AP5]	unaffected	induced an increase of iei	–	–	–	–	–	–	–
[Cl-].[K+] [KCl]	–	–	unchanged	not by KCl stimulus	1.22 ± 0.11	–	–	–	–
CN[C@H](CC(=O)O)C(=O)O [NMDA, N-methyl-D-aspartate]	–	–	unchanged	1.58 ± 0.12	1.38 ± 0.07	1.85 ± 0.06	68% ± 10	1.54 ± 0.12	1.51 ± 0.13
